According to the supplement of paper PMC12819154, “High-throughput peptide-centric local stability assay extends protein–ligand identification to membrane proteins, tissues and bacteria” (Nature Structural & Molecular Biology, 2025):

Tests used:
Assay in all cases: pEC50 of peptide local stability change
UniProt P03018 = conditions: peptide sequence: EVYHRPSR; direction: stabilized; replicate design: treated separately
Procedure: (§1)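 Dose-response HT-PELSA: desalted E. coli lysate treated separately per replicate with ATP (10 uM to 10 mM, 7 doses) for 30 min at 25 C, then a 4 min trypsin pulse at 22 C. Peptide ratio vs control was fitted with a 4-parameter log-logistic model (R2 > 0.9 in at least 3 replicates, CV of pEC50 <= 0.25); value is the mean pEC50 across replicates for stabilized or destabilized peptides.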

UniProt P06612 = conditions: peptide sequence: DLPTSGSAAKK; direction: stabilized; replicate design: treated separately
Procedure: as §1

UniProt P07604 = conditions: peptide sequence: YAWPGNVR; direction: stabilized; replicate design: treated separately
Procedure: as §1

UniProt P07821 = conditions: peptide sequence: LVDSLSGGER; direction: stabilized; replicate design: treated separately
Procedure: as §1

UniProt P0A8F8 = conditions: peptide sequence: VLVTTLTKR; direction: stabilized; replicate design: treated separately
Procedure: as §1

UniProt P0AA41 = conditions: peptide sequence: EDKGPQPAVTHYR; direction: stabilized; replicate design: treated separately
Procedure: as §1

UniProt P0ACL0 = conditions: peptide sequence: HVMLVVDHSK; direction: stabilized; replicate design: treated separately
Procedure: as §1

UniProt P0AFW8 = conditions: peptide sequence: KNVEYLVVEAAGETR; direction: stabilized; replicate design: treated separately
Procedure: as §1

UniProt P13458 = conditions: peptide sequence: LESTFAVK; direction: stabilized; replicate design: treated separately
Procedure: as §1

UniProt P15640 = conditions: peptide sequence: VIEFNCR; direction: stabilized; replicate design: treated separately
Procedure: as §1

UniProt P17888 = conditions: peptide sequence: QQQALAALR; direction: stabilized; replicate design: treated separately
Procedure: as §1

UniProt P20083 = conditions: peptide sequence: RDGQVYNIAFENGEK; direction: stabilized; replicate design: treated separately
Procedure: as §1

UniProt P22106 = conditions: peptide sequence: QALEDSVK; direction: stabilized; replicate design: treated separately
Procedure: as §1

UniProt P25536 = conditions: peptide sequence: IVTGIEEQR; direction: stabilized; replicate design: treated separately
Procedure: as §1

UniProt P25741 = conditions: peptide sequence: GKDAFAEVK; direction: stabilized; replicate design: treated separately
Procedure: as §1

UniProt P28903 = conditions: peptide sequence: KGDPNYDIK; direction: stabilized; replicate design: treated separately
Procedure: as §1

UniProt P31142 = conditions: peptide sequence: FNAEVDEPRPGLR; direction: stabilized; replicate design: treated separately
Procedure: as §1

UniProt P31808 = conditions: peptide sequence: TGMTFDAQPGR; direction: stabilized; replicate design: treated separately
Procedure: as §1

UniProt P37440 = conditions: peptide sequence: CTAVVADVR; direction: stabilized; replicate design: treated separately
Procedure: as §1

UniProt P37617 = conditions: peptide sequence: VTQVAFDKTGTLTVGKPR; direction: stabilized; replicate design: treated separately
Procedure: as §1

UniProt P37634 = conditions: peptide sequence: HTVQSLIIESLKEK; direction: stabilized; replicate design: treated separately
Procedure: as §1

UniProt P37908 = conditions: peptide sequence: QLSHSPHGR; direction: stabilized; replicate design: treated separately
Procedure: as §1

UniProt P39177 = conditions: peptide sequence: NPSISTHLLGSNASSVIR; direction: stabilized; replicate design: treated separately
Procedure: as §1

UniProt P39359 = conditions: peptide sequence: EVADFLINK; direction: stabilized; replicate design: treated separately
Procedure: as §1

UniProt P42593 = conditions: peptide sequence: TTGWIHR; direction: stabilized; replicate design: treated separately
Procedure: as §1

UniProt P75821 = conditions: peptide sequence: SAKEPPLTHYGVSK; direction: stabilized; replicate design: treated separately
Procedure: as §1

UniProt P76256 = conditions: peptide sequence: GPGSFTGVR; direction: stabilized; replicate design: treated separately
Procedure: as §1

UniProt P76594 = conditions: peptide sequence: YLVIQGIK; direction: stabilized; replicate design: treated separately
Procedure: as §1

UniProt P77756 = conditions: peptide sequence: ALNHAVSLGMAK; direction: stabilized; replicate design: treated separately
Procedure: as §1

UniProt Q06065 = conditions: peptide sequence: QPVCNAGEVK; direction: stabilized; replicate design: treated separately
Procedure: as §1

UniProt Q46927 = conditions: peptide sequence: AALIAYCR; direction: stabilized; replicate design: treated separately
Procedure: as §1

UniProt P75821, sequence (P75821 whole entry): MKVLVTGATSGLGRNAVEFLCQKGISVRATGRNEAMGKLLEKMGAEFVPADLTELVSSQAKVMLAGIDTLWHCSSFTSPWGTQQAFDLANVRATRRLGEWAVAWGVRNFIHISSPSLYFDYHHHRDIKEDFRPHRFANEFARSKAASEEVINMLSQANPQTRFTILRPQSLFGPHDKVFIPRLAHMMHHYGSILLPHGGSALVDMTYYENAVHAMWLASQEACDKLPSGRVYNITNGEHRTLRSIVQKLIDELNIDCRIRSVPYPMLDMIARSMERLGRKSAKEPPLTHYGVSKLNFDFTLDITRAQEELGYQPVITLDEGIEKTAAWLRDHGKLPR
UniProt P06612, sequence (P06612 whole entry): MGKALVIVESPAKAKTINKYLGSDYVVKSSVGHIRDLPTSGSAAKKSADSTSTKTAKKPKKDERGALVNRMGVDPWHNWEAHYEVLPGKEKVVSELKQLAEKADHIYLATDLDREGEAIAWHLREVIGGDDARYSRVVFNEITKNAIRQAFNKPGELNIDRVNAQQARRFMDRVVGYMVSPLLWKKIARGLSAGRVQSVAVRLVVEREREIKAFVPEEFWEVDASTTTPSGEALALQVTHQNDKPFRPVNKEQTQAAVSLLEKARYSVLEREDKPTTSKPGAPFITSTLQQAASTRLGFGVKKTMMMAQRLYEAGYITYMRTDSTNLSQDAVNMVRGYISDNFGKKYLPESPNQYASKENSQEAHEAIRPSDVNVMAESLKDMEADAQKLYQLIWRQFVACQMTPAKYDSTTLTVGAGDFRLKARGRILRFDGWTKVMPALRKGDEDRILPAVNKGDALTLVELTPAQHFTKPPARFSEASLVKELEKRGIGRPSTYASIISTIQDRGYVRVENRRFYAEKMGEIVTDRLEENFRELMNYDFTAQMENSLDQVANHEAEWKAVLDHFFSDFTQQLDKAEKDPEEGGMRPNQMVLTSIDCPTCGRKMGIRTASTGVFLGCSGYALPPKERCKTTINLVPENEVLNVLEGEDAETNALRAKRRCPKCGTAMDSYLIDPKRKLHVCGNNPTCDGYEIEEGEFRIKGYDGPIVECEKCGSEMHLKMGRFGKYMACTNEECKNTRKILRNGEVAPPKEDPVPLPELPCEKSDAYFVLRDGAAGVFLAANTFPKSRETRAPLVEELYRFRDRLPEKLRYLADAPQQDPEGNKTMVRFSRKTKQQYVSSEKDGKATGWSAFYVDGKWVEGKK
UniProt P0ACL0, sequence (P0ACL0 whole entry): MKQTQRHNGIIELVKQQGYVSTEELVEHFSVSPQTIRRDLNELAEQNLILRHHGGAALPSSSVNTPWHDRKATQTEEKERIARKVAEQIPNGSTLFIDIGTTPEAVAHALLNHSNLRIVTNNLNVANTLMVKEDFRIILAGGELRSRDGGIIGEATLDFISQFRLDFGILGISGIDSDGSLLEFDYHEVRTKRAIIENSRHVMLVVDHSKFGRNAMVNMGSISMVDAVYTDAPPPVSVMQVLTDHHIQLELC
UniProt P0AFW8, sequence (P0AFW8 whole entry): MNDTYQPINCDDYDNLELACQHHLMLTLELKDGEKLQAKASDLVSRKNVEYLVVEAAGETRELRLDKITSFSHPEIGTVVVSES
UniProt P28903, sequence (P28903 whole entry): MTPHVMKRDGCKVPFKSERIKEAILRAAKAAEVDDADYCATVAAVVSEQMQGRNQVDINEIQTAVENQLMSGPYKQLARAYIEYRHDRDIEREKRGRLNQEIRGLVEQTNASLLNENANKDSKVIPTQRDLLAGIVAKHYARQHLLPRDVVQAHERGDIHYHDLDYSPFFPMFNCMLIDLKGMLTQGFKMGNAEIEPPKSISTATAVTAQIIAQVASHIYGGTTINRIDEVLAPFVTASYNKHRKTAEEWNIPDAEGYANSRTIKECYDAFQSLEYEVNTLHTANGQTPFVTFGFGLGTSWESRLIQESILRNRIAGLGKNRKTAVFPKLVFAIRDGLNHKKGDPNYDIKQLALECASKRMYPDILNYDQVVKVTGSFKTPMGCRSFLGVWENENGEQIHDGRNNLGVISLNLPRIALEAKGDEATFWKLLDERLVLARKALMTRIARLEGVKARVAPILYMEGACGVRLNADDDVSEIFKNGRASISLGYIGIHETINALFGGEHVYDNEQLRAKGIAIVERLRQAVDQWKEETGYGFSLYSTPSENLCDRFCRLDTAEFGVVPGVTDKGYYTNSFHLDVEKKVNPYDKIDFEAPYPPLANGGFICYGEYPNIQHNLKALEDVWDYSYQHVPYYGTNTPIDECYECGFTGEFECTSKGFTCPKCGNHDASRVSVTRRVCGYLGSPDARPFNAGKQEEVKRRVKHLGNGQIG
UniProt P76594, sequence (P76594 whole entry): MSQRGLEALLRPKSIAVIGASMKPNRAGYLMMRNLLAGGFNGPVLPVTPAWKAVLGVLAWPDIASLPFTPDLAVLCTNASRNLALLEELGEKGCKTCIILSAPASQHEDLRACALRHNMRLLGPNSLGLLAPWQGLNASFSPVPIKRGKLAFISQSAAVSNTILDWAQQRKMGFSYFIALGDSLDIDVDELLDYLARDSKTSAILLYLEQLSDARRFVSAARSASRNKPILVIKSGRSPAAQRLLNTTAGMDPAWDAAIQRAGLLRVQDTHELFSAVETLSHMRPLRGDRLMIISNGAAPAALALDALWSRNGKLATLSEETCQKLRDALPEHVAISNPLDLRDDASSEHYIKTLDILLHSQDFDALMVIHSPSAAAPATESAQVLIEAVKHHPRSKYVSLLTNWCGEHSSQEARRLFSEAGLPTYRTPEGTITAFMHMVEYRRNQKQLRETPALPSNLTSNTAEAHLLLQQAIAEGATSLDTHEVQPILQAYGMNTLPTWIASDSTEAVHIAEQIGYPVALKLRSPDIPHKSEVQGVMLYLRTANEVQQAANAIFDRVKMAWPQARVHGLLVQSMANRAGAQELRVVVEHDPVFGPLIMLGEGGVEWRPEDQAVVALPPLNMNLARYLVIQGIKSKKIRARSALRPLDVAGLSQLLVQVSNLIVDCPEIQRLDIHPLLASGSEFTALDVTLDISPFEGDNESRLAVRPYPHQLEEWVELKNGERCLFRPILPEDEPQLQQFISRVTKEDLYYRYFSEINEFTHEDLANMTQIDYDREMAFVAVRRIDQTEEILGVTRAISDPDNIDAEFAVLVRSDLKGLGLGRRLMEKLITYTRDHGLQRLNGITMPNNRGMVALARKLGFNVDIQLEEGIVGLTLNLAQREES
UniProt P39359, sequence (P39359 whole entry): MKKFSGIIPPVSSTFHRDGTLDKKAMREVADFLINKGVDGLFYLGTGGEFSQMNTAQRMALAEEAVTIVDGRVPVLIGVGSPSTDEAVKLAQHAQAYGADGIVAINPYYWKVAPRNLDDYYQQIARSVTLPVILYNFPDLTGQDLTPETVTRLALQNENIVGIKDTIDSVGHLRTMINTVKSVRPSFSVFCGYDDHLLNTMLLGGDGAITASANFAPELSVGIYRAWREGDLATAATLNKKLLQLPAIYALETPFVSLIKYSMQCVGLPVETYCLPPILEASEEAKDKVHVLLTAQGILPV
UniProt P37634, sequence (P37634 whole entry): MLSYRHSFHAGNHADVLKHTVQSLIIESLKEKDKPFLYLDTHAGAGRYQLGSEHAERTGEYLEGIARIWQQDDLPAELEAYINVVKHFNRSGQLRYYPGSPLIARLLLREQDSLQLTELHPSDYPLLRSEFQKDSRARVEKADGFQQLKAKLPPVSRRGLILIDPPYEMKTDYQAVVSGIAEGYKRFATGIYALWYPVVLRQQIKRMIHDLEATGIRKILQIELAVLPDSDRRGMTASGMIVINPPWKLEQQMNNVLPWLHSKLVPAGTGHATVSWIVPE
UniProt P37617, sequence (P37617 whole entry): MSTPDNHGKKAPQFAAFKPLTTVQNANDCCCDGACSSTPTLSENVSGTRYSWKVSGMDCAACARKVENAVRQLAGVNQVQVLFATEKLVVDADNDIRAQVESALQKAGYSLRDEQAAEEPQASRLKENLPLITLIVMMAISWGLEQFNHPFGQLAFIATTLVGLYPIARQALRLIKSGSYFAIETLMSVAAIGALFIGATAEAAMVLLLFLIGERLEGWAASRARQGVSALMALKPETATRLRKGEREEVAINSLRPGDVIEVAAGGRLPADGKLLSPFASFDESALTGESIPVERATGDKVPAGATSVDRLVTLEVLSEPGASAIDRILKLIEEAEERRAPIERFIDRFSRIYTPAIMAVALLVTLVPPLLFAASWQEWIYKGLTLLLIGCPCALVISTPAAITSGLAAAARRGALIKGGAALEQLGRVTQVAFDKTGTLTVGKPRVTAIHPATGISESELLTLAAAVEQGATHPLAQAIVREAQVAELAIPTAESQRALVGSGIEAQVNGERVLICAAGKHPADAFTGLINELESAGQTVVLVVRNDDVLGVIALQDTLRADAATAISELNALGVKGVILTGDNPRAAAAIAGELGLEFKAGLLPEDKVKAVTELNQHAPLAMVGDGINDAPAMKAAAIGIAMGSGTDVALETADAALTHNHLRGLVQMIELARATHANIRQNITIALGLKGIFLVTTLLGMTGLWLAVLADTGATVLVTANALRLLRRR
UniProt P15640, sequence (P15640 whole entry): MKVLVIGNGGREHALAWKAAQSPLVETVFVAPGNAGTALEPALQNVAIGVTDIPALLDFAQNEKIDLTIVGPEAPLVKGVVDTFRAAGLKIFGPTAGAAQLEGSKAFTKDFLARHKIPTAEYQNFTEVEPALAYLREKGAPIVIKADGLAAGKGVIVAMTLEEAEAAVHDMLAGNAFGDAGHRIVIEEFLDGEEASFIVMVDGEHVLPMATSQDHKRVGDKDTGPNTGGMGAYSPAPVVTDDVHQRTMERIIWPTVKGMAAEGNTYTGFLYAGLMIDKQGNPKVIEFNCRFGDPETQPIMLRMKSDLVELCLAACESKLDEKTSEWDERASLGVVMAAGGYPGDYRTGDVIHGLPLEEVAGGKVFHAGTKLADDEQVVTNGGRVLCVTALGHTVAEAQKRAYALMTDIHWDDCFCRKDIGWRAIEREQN

SMILES: Nc1ncnc2c1ncn2[C@@H]1O[C@H](COP(=O)(O)OP(=O)(O)OP(=O)(O)O)[C@@H](O)[C@H]1O [adenosine 5'-triphosphate]
- pEC50 of peptide local stability change (UniProt P03018): 3.07
- pEC50 of peptide local stability change (UniProt P06612): 2.16
- pEC50 of peptide local stability change (UniProt P07604): 4.06
- pEC50 of peptide local stability change (UniProt P07821): 3.1
- pEC50 of peptide local stability change (UniProt P0A8F8): 2.14
- pEC50 of peptide local stability change (UniProt P0AA41): 2.34
- pEC50 of peptide local stability change (UniProt P0ACL0): 4.44
- pEC50 of peptide local stability change (UniProt P0AFW8): 3.07
- pEC50 of peptide local stability change (UniProt P13458): 2.9
- pEC50 of peptide local stability change (UniProt P15640): 3.7
- pEC50 of peptide local stability change (UniProt P17888): 3.81
- pEC50 of peptide local stability change (UniProt P20083): 3.38
- pEC50 of peptide local stability change (UniProt P22106): 2.42
- pEC50 of peptide local stability change (UniProt P25536): 3.52
- pEC50 of peptide local stability change (UniProt P25741): 3.2
- pEC50 of peptide local stability change (UniProt P28903): 2.76
- pEC50 of peptide local stability change (UniProt P31142): 3.24
- pEC50 of peptide local stability change (UniProt P31808): 2.09
- pEC50 of peptide local stability change (UniProt P37440): 2.72
- pEC50 of peptide local stability change (UniProt P37617): 3.12
- pEC50 of peptide local stability change (UniProt P37634): 2.64
- pEC50 of peptide local stability change (UniProt P37908): 2.73
- pEC50 of peptide local stability change (UniProt P39177): 3.26
- pEC50 of peptide local stability change (UniProt P39359): 3.49
- pEC50 of peptide local stability change (UniProt P42593): 2.95
- pEC50 of peptide local stability change (UniProt P75821): 2.62
- pEC50 of peptide local stability change (UniProt P76256): 3.97
- pEC50 of peptide local stability change (UniProt P76594): 2.33
- pEC50 of peptide local stability change (UniProt P77756): 3.62
- pEC50 of peptide local stability change (UniProt Q06065): 3.47
- pEC50 of peptide local stability change (UniProt Q46927): 3.69
